Reference: patent EP0892802B1, “SPIRO(CYCLOPENT(B)INDOLE-PIPERIDINES) AND N-PHENYL-HYDRAZON INTERMEDIATES FOR THEIR PREPARATION, BOTH BEING ACETYLCHOLINESTERASE AND MAO INHIBITORS” (priority 1996, dated 1997)
pIC50: −log10 of the molar value.

Legend:
acetylcholinesterase = target: T1, acetylcholinesterase (Rattus norvegicus, UniProt P37136); assay: biochemical; design: species or system Male Wistar rats; settings: rat corpora striata homogenate; preincubated 10 minutes at 37°C; acetylthiocholine substrate 5 millimolar final; log-probit analysis; read-out: Inhibition of Acetylcholinesterase Activity IC50
T1 construct: corpora striata dissected free, weighted and homogenized in 19 volumes; from tissue; host or cells: rat brain corpora striata, crude homogenate
T1 sequence (P37136 32-614): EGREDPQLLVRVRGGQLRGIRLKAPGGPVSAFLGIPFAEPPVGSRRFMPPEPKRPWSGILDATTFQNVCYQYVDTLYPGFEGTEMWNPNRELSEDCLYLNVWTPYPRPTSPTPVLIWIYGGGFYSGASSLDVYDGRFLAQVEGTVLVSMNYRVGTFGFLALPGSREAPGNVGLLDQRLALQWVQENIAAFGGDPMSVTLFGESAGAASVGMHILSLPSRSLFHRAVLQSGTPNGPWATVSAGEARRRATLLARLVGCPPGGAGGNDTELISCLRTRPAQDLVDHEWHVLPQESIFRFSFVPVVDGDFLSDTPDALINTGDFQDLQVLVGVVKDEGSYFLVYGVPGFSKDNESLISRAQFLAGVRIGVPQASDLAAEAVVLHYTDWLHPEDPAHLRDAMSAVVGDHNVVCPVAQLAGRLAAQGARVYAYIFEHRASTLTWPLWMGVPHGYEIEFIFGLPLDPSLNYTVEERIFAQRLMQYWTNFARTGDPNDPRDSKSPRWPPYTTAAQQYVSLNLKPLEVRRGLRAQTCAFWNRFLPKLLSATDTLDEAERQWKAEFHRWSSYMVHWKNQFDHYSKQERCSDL
Description: 0.05M Phosphate Buffer (pH 7.2) A solution of monobasic sodium phosphate monohydrate (6.85 g) in distilled water (100 ml) is added to a solution of dibasic sodium phosphate heptahydrate (13.4 g) and distilled water (100 ml) until a pH of 7.2 was attained. The solution was diluted 1 to 10 with distilled water. • 2. […] 5,5-Dithiobisnitrobenzoic acid in Buffer The 0.05M Phosphate Buffer (pH 7.2) was added to 5.5-dithiobisnitrobenzoic acid to a total volume of 100 ml, i.e., a quantity sufficient (gs) to 100 ml. • 4. Stock Solution of Drug A 2 millimolar stock solution of the test drug is prepared in a quantity sufficient of either acetic acid or dimethyl sulfoxide to volume with 5,5-dithiobisnitrobenzoic acid in Buffer. […]
Male Wistar rats are decapitated, brains rapidly removed, corpora striata dissected free, weighted and homogenized in 19 volumes (approximately 7 mg protein/ml) of 0.05M Phosphate Buffer (pH 7.2) using a Potter-Elvejhem homogenizer. […] Enzyme activity is measured with a Beckman DU-50 spectrophotometer with the following software and instrument settings: • 1. […]
Blank values are determined for each run to control for non-enzymatic hydrolysis of substrate and these values are automatically subtracted by the Kindata program available on kinetics soft-pac module. This program also calculates the rate of absorbance change for each cuvette. […]

monoamine oxidase-A = target: T2, monoamine oxidase-A (Rattus norvegicus, UniProt P21396); assay: in vitro inhibition of monoamine oxidase assay (modified Kindt), MAO-A; format: biochemical, Male Wistar rats; settings: rat whole brain minus cerebellum, mitochondrial P2 pellet; substrate [3H]-5-hydroxytryptamine 200 µM; preincubated 15 minutes, incubated 30 minutes at 37°C; log-probit analysis
T2 construct: serves as the tissue source for mitochondrial monoamine oxidase; from tissue; host or cells: rat whole brain minus cerebellum, P2 (crude mitochondrial) pellet
T2 sequence (P21396 1-526): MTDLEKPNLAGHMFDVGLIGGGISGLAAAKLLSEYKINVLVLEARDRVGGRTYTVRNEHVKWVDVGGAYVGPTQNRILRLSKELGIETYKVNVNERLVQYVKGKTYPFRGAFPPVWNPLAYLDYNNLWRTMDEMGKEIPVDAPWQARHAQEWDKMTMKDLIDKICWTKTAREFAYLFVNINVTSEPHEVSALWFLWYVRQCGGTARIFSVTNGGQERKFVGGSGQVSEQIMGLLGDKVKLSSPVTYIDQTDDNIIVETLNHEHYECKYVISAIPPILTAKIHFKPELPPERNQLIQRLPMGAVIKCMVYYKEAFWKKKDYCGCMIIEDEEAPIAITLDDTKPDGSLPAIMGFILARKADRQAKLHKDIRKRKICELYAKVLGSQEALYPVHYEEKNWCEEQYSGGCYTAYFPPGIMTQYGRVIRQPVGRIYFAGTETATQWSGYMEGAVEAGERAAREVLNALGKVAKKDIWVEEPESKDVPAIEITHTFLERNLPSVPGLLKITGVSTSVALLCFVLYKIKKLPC
Description: (§1) In this assay, a modification of an assay described by M. V. Kindt, et al., Europ.
The following reagents are prepared: • 1. Phosphate buffer (0.5 M), pH 7.4; 134.4 g dibasic sodium phosphate heptahydrate q.s. to 1 liter in distilled water (A) 17.3 g monobasic sodium phosphate q.s. to 250 ml in distilled water (B) Adjust pH of A to 7.4 by slowly adding B (volumes as needed) Dilute 1:10 in distilled water (0.05 M phosphate buffer, pH 7.4) • 2. 0.25 M Sucrose (phosphate buffered): 21.4 g sucrose, q.s. to 250 ml with 0.05 M phosphate buffer • 3. Substrate for monoamine oxidase-A: • a. serotonin creatine sulphate (5-hydroxytryptamine) is obtained from Sigma Chemical Company. A 5 mM stock solution is made up in 0.01 N-hydrochloric acid. The solution is used to dilute the specific activity of the [^3H]-hydroxytryptamine. • b. [^3H]-5-hydroxytryptamine binoxalate (20-30 Ci/mmol) is obtained from New England Nuclear. • c. Add 12 µl of [^3H]-5-hydroxytryptamine to 2 ml of the 5 mM 5-hydroxytryptamine solution. (Final amine concentration in the assay is 200 µM: see below.) • 4. Substrate for monoamine oxidase-B • a. β-phenethylamine is obtained from Sigma Chemical Company. A 5 mM stock solution is made up in 0.01 N-hydrochloric acid. The solution is used to dilute the specific activity of the [^14C]-β-phenethylamine. • b. β-[ethyl-1-^14C]-phenethylamine hydrochloride (40-50 mCi/mmol) is obtained from New England Nuclear. • c. Add 12 µl of [^14C]-β-phenethylamine to 2 ml of the 5 mM β-phenethylamine solution. (Final amine concentration in the assay is 200 µM: see below.) • 5. Equal amounts of monoamine oxidase-A (5-hydroxytryptamine) and monoamine oxidase-B (β-phenethylamine) substrates are combined for simultaneously testing both monoamine oxidase types, i.e., mixed stock solution of 2.5 mM 5-hydroxytryptamine and 2.5 mM β-phenethylamine. 40 µl of this mixed solution gives a 200 µM final concentration of each amine in the assay. […]

monoamine oxidase-B = target: T3, monoamine oxidase-B (Rattus norvegicus, UniProt P19643); assay: in vitro inhibition of monoamine oxidase assay (modified Kindt), MAO-B; format: biochemical, Male Wistar rats; settings: rat whole brain minus cerebellum, mitochondrial P2 pellet; substrate [14C]-β-phenethylamine 200 µM; preincubated 15 minutes, incubated 30 minutes at 37°C; log-probit analysis
T3 construct: serves as the tissue source for mitochondrial monoamine oxidase; from tissue; host or cells: rat whole brain minus cerebellum, P2 (crude mitochondrial) pellet
T3 sequence (P19643 1-520): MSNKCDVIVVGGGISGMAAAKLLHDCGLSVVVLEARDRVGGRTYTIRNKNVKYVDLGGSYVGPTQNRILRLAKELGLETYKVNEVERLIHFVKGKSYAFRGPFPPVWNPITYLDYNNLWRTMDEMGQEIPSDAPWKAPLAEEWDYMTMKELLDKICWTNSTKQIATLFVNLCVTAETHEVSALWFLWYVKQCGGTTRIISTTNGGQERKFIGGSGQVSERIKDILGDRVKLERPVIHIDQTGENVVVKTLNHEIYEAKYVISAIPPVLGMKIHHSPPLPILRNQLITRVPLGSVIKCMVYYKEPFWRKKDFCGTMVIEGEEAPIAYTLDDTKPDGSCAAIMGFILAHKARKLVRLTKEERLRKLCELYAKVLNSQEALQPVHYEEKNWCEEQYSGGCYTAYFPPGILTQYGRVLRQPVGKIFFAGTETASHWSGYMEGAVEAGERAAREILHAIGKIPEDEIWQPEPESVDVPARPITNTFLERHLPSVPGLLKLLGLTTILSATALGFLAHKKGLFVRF
Description: as §1
The following reagents are prepared: • 1. Phosphate buffer (0.5 M), pH 7.4; 134.4 g dibasic sodium phosphate heptahydrate q.s. to 1 liter in distilled water (A) 17.3 g monobasic sodium phosphate q.s. to 250 ml in distilled water (B) Adjust pH of A to 7.4 by slowly adding B (volumes as needed) Dilute 1:10 in distilled water (0.05 M phosphate buffer, pH 7.4) • 2. 0.25 M Sucrose (phosphate buffered): 21.4 g sucrose, q.s. to 250 ml with 0.05 M phosphate buffer • 3. Substrate for monoamine oxidase-A: • a. serotonin creatine sulphate (5-hydroxytryptamine) is obtained from Sigma Chemical Company. A 5 mM stock solution is made up in 0.01 N-hydrochloric acid. The solution is used to dilute the specific activity of the [^3H]-hydroxytryptamine. • b. [^3H]-5-hydroxytryptamine binoxalate (20-30 Ci/mmol) is obtained from New England Nuclear. • c. Add 12 µl of [^3H]-5-hydroxytryptamine to 2 ml of the 5 mM 5-hydroxytryptamine solution. (Final amine concentration in the assay is 200 µM: see below.) • 4. Substrate for monoamine oxidase-B • a. β-phenethylamine is obtained from Sigma Chemical Company. A 5 mM stock solution is made up in 0.01 N-hydrochloric acid. […]

SMILES | pIC50 (acetylcholinesterase) | pIC50 (monoamine oxidase-A) | pIC50 (monoamine oxidase-B)
COc1ccc(CN2CCC3(CCc4c3n(C)c3ccccc43)CC2)cc1 [1,4-Dihydro-1'-(4-methoxyphenyl)methyl-4-methylspiro[cyclopent[b]indole-3(2H), 4'-piperidine]] | 4.19 | 4.01 | 3.90
COc1cc(Br)c2oc(C3CCNCC3)cc2c1 [brofaromine, reference compound] |  | 6.74 | 
CNC(=O)Oc1ccc2c(c1)c1c(n2C)C2(CC1)CCN(Cc1ccccc1)CC2 [1,4-Dihydro-4-methyl-7-methylaminocarbonyloxy-1'-phenylmethylspiro[cyclopent[b]indole-3(2H), 4'-piperidine]] | 4.98 |  | 
COc1cccc(CN2CCC3(CCc4c3n(C)c3ccccc43)CC2)c1 [1,4-Dihydro-1'-(3-methoxyphenyl)methyl-4-methylspiro[cyclopent[b]indole-3(2H), 4'piperidine]] |  | 4.29 | 
